Results as given in US8299070B2, “Indole compounds and pharmaceutical use thereof” (Japan Tobacco Inc., priority 2009, dated 2012).

target: T1, hITK enzyme (FLAG-tagged full-length hITK) (Homo sapiens, UniProt Q08881); test: ITK inhibitory activity (HTRF kinase assay, biotinylated GST-SLP76 substrate); format: biochemical; details: IC50 calculated from the 2 test compound concentrations sandwiching 50% ITK inhibitory rate
T1 construct: strongly expressing FLAG-tagged full-length hITK in Sf9 cells; FLAG; made in house; host or cells: Sf9 insect cells (ITK); Escherichia coli (GST-SLP76 substrate)
T1 sequence (Q08881 1-620): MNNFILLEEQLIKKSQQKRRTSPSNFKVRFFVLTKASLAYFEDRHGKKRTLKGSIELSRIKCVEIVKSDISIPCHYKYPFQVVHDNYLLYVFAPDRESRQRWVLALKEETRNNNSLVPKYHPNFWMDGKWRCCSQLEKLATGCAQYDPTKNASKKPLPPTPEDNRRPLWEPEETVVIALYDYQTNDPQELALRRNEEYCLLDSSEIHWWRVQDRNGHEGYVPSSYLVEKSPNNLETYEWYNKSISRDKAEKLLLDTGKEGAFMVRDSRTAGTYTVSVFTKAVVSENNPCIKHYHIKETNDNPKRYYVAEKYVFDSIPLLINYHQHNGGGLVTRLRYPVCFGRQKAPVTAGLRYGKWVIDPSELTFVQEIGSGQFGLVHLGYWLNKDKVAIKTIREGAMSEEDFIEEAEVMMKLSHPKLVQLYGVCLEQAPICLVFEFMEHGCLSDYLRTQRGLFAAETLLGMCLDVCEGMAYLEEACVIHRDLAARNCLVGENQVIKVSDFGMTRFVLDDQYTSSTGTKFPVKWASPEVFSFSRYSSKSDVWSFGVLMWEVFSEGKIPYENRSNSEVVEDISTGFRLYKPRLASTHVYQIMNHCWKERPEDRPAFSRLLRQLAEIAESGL
Method in brief: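 Sf9-expressed hITK (50 ng/mL enzyme solution) reacted 10 min at RT in MOPS pH 7.0, 10 mmol/L MgCl2, 1 mmol/L DTT with E. coli SLP76 aa95–175 substrate; substrate solution held 100 µmol/L ATP (6 µmol/L for selected compounds). HTRF 665/620 ratio, blank-corrected; IC50 interpolated between two concentrations bracketing 50% inhibition.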

| Structure (SMILES) | IC50 [nM] |
| --- | --- |
| CN(CC(=O)N(C)c1ccc2cc(-c3n[nH]c4c3CCC(C)(C)C4)[nH]c2c1)C(=O)C(C)(C)C [Example 179] | 1 |
| COCC(=O)N(C)CC(=O)N(C)c1ccc2cc(-c3n[nH]c4c3CCC(C)(C)C4)[nH]c2c1 [Example 180] | < 1 |
| C[C@@H]1CN(CC(=O)N(C)c2ccc3cc(-c4n[nH]c5c4CCC(C)(C)C5)[nH]c3c2)C(=O)CO1 [Example 182] | 2 |
| CN(C(=O)CN1CCC(C)(C)C1=O)c1ccc2cc(-c3n[nH]c4c3CCC(C)(C)C4)[nH]c2c1 [Example 183] | 1 |
| CN(C(=O)CN1CC(C)(C)OCC1=O)c1ccc2cc(-c3n[nH]c4c3CCC(C)(C)C4)[nH]c2c1 [Example 184] | 1 |
| CN(C(=O)CN1CCNC1=O)c1ccc2cc(-c3n[nH]c4c3CCC(C)(C)C4)[nH]c2c1 [Example 185] | 2 |
| CN1CCN(CC(=O)N(C)c2ccc3cc(-c4n[nH]c5c4CCC(C)(C)C5)[nH]c3c2)C1=O [Example 186] | 1 |
| CN(C(=O)CN1CCCCCCC1=O)c1ccc2cc(-c3n[nH]c4c3CCC(C)(C)C4)[nH]c2c1 [Example 187] | 2 |
| CC1CC(=O)N(CC(=O)N(C)c2ccc3cc(-c4n[nH]c5c4CCC(C)(C)C5)[nH]c3c2)C1 (stereo not drawn) [Example 188] | 1 |
| CN(C(=O)CN1CCC(C)(C)CC1=O)c1ccc2cc(-c3n[nH]c4c3CCC(C)(C)C4)[nH]c2c1 [Example 189] | 1 |
| CC[C@@H](C(=O)N(C)c1ccc2cc(-c3n[nH]c4c3CCC(C)(C)C4)[nH]c2c1)N1CCOCC1 [Example 190] | 4 |
| CC[C@H](C(=O)N(C)c1ccc2cc(-c3n[nH]c4c3CCC(C)(C)C4)[nH]c2c1)N1CCOCC1 [Example 191] | 7 |
| CC(=O)N(C)CC(=O)N(C)c1ccc2cc(-c3n[nH]c4c3CCC(C)(C)C4)[nH]c2c1 [Example 192] | 2 |
| CN(CC(=O)N(C)c1ccc2cc(-c3n[nH]c4c3CCC(C)(C)C4)[nH]c2c1)C(=O)CC(C)(C)O [Example 193] | 2 |
| CO[C@H]1CC[C@@H](C(=O)N(C)CC(=O)N(C)c2ccc3cc(-c4n[nH]c5c4CCC(C)(C)C5)[nH]c3c2)CC1 [Example 194] | 2 |
| CC(C(=O)N(C)c1ccc2cc(-c3n[nH]c4c3CCC(C)(C)C4)[nH]c2c1)N(C)C(=O)OC(C)(C)C (stereo not drawn) [Example 195] | 20 |
| COC[C@H]1CCC(=O)N1CC(=O)N(C)c1ccc2cc(-c3n[nH]c4c3CCC(C)(C)C4)[nH]c2c1 [Example 196] | 4 |
| COC[C@@H]1CCC(=O)N1CC(=O)N(C)c1ccc2cc(-c3n[nH]c4c3CCC(C)(C)C4)[nH]c2c1 [Example 197] | 2 |
| COC(=O)N(C)CC(=O)N(C)c1ccc2cc(-c3n[nH]c4c3CCC(C)(C)C4)[nH]c2c1 [Example 198] | 1 |
| CC(C)C(=O)N(C)CC(=O)N(C)c1ccc2cc(-c3n[nH]c4c3CCC(C)(C)C4)[nH]c2c1 [Example 199] | 2 |
| CN(CC(=O)N(C)c1ccc2cc(-c3n[nH]c4c3CCC(C)(C)C4)[nH]c2c1)C(=O)C1CC1 [Example 200] | 1 |

| Structure (SMILES) | IC50 [nM] |
| --- | --- |
| CN(C(=O)C1CCOC1(C)C)c1ccc2cc(-c3n[nH]c4c3CCC(C)(C)C4)[nH]c2c1 (stereo not drawn) [Example 201] | 10 |
| CC(=O)N(C)[C@@H](C)C(=O)N(C)c1ccc2cc(-c3n[nH]c4c3CCC(C)(C)C4)[nH]c2c1 [Example 202] | 14 |
| CCC(=O)N(C)[C@@H](C)C(=O)N(C)c1ccc2cc(-c3n[nH]c4c3CCC(C)(C)C4)[nH]c2c1 [Example 203] | 12 |
| C[C@@H](C(=O)N(C)c1ccc2cc(-c3n[nH]c4c3CCC(C)(C)C4)[nH]c2c1)N(C)C(=O)C1CC1 [Example 205] | 27 |
| CCN(C(=O)CO)c1ccc2cc(-c3n[nH]c4c3CCC(C)(C)C4)[nH]c2c1 [Example 206] | 5 |
| CCN(C(=O)COC)c1ccc2cc(-c3n[nH]c4c3CCC(C)(C)C4)[nH]c2c1 [Example 207] | 4 |
| CC1(C)CCc2c(-c3cc4ccc(N5CCOC5=O)cc4[nH]3)n[nH]c2C1 [Example 208] | 29 |
| CCC(=O)N(CCO)c1ccc2cc(-c3n[nH]c4c3CCC(C)(C)C4)[nH]c2c1 [Example 209] | 4 |
| CC1(C)CCc2c(-c3cc4ccc(N5CCCC5=O)cc4[nH]3)n[nH]c2C1 [Example 210] | 36 |
| CC1(C)CCc2c(-c3cc4ccc(N5CCCCC5=O)cc4[nH]3)n[nH]c2C1 [Example 211] | 33 |
| CCC(=O)N(CCOC)c1ccc2cc(-c3n[nH]c4c3CCC(C)(C)C4)[nH]c2c1 [Example 212] | 5 |
| COCC(=O)N(CCO)c1ccc2cc(-c3n[nH]c4c3CCC(C)(C)C4)[nH]c2c1 [Example 213] | < 3 |
| CC(=O)N(CCO)c1ccc2cc(-c3n[nH]c4c3CCC(C)(C)C4)[nH]c2c1 [Example 214] | < 3 |
| CN(C)CCN(C(=O)C1CCCCC1)c1ccc2cc(-c3n[nH]c4c3CCC(C)(C)C4)[nH]c2c1 [Example 215] | < 3 |
| CN(C)CCN(C(=O)C1CCOCC1)c1ccc2cc(-c3n[nH]c4c3CCC(C)(C)C4)[nH]c2c1 [Example 216] | 8 |
| CN(C)CCN(C(=O)C1CCOC1)c1ccc2cc(-c3n[nH]c4c3CCC(C)(C)C4)[nH]c2c1 (stereo not drawn) [Example 217] | < 3 |
| CN(C)CCCN(C(=O)C1CCCCC1)c1ccc2cc(-c3n[nH]c4c3CCC(C)(C)C4)[nH]c2c1 [Example 218] | < 3 |
| CN(C)CCN(C(=O)CC1CCCCC1)c1ccc2cc(-c3n[nH]c4c3CCC(C)(C)C4)[nH]c2c1 [Example 219] | 4 |
| CN(C)CCN(C(=O)C1CCCO1)c1ccc2cc(-c3n[nH]c4c3CCC(C)(C)C4)[nH]c2c1 (stereo not drawn) [Example 220] | < 3 |
| CN(C)CCN(C(=O)CC1CCOCC1)c1ccc2cc(-c3n[nH]c4c3CCC(C)(C)C4)[nH]c2c1 [Example 221] | 3 |
| COCC(=O)N(CCN(C)C)c1ccc2cc(-c3n[nH]c4c3CCC(C)(C)C4)[nH]c2c1 [Example 222] | < 3 |

| Structure (SMILES) | IC50 [nM] |
| --- | --- |
| CN(C)CCCN(C(=O)C1CCOCC1)c1ccc2cc(-c3n[nH]c4c3CCC(C)(C)C4)[nH]c2c1 [Example 223] | 5 |
| CN(C)CCCN(C(=O)C1CCCO1)c1ccc2cc(-c3n[nH]c4c3CCC(C)(C)C4)[nH]c2c1 (stereo not drawn) [Example 224] | 1 |
| CN(C)CCCN(C(=O)C1CCOC1)c1ccc2cc(-c3n[nH]c4c3CCC(C)(C)C4)[nH]c2c1 (stereo not drawn) [Example 225] | 2 |
| CN(C)CCCN(C(=O)CC1CCOCC1)c1ccc2cc(-c3n[nH]c4c3CCC(C)(C)C4)[nH]c2c1 [Example 226] | 2 |
| CC1(C)CCc2c(-c3cc4ccc(N5CCC(O)C5=O)cc4[nH]3)n[nH]c2C1 (stereo not drawn) [Example 227] | 34 |
| CC1(C)CCc2c(-c3cc4ccc(N5CCC(CO)C5=O)cc4[nH]3)n[nH]c2C1 (stereo not drawn) [Example 228] | 40 |
| CC1CCN(c2ccc3cc(-c4n[nH]c5c4CCC(C)(C)C5)[nH]c3c2)C1=O (stereo not drawn) [Example 229] | 38 |
| CC1(C)CCc2c(-c3cc4ccc(N5CCC(C)(CO)C5=O)cc4[nH]3)n[nH]c2C1 (stereo not drawn) [Example 230] | 25 |
| CC1(C)CCc2c(-c3cc4ccc(N(CCO)C(=O)C5CCCC5)cc4[nH]3)n[nH]c2C1 [Example 231] | 2 |
| CC1(C)CCc2c(-c3cc4ccc(N(CCO)C(=O)CC5CCCOC5)cc4[nH]3)n[nH]c2C1 (stereo not drawn) [Example 232] | 3 |
| CO[C@H]1CC[C@H](C(=O)N(CCO)c2ccc3cc(-c4n[nH]c5c4CCC(C)(C)C5)[nH]c3c2)CC1 [Example 233] | 10 |
| CC1(C)CCc2c(-c3cc4ccc(N(CCO)C(=O)[C@H]5CC[C@H](O)CC5)cc4[nH]3)n[nH]c2C1 [Example 234] | 16 |
| CC1(C)CCc2c(-c3cc4ccc(N(CCO)C(=O)CC5CCCCC5)cc4[nH]3)n[nH]c2C1 [Example 235] | 8 |
| CC1(C)CCc2c(-c3cc4ccc(N(CCO)C(=O)C5CCOCC5)cc4[nH]3)n[nH]c2C1 [Example 236] | 6 |
| CC1(C)CCc2c(-c3cc4ccc(N(CCO)C(=O)C5CCCO5)cc4[nH]3)n[nH]c2C1 (stereo not drawn) [Example 237] | 2 |
| CC1(C)CCc2c(-c3cc4ccc(N(CCO)C(=O)C5CCOC5)cc4[nH]3)n[nH]c2C1 (stereo not drawn) [Example 238] | 2 |
| CC1(C)CCc2c(-c3cc4ccc(N(CCO)C(=O)C5CCCCC5)cc4[nH]3)n[nH]c2C1 [Example 239] | 5 |
| CO[C@H]1CC[C@@H](C(=O)N(CCO)c2ccc3cc(-c4n[nH]c5c4CCC(C)(C)C5)[nH]c3c2)CC1 [Example 240] | 3 |
| CC(C(=O)N(CCO)c1ccc2cc(-c3n[nH]c4c3CCC(C)(C)C4)[nH]c2c1)C1CCCCC1 (stereo not drawn) [Example 241] | 23 |
| CC(C(=O)N(CCO)c1ccc2cc(-c3n[nH]c4c3CCC(C)(C)C4)[nH]c2c1)C1CCOCC1 (stereo not drawn) [Example 242] | 3 |

same assay, conditions: at 30 nM test compound; read-out: ITK inhibitory rate (%)

| Structure (SMILES) | inhibition at 0.03 µM [%] |
| --- | --- |
| CC(C)C(=O)N(C)[C@@H](C)C(=O)N(C)c1ccc2cc(-c3n[nH]c4c3CCC(C)(C)C4)[nH]c2c1 [Example 204] | 49.2 |
